Results taken from patent US10988465B2, “CXCR4 inhibitors and uses thereof” (X4 Pharmaceuticals, Inc., priority 2016, dated 2021).

Columns and labels:
[1] = target: T1, CXCR-4 transfected U87 cell line (U87.CXCR4) (Homo sapiens, UniProt P61073); experiment: Intracellular CXCL-12-induced calcium mobilization assay (FLIPR); type: cell-based; settings: U87.CXCR4 cells; CXCL-12 25-50 ng/mL; compound added 15 min before; read-out: IC50 CXCL-12 Ca^2+ flux U87.CXCR4+
T1 construct: expressed in transfected cells; host or cells: U87 (U87.CXCR4)
Experimental: Example 36: REGA Screening Assay
Intracellular CXCL-12-Induced Calcium Mobilization Assay
Intracellular calcium mobilization induced by chemokines or chemokine-derived peptides were evaluated using a calcium responsive fluorescent probe and a FLIPR system. The CXCR-4 transfected U87 cell line (U87.CXCR4) cells were seeded in gelatine-coated black-wall 96-well plates at 20,000 cells per well and incubated for 12 hours. Cells were then loaded with the fluorescent calcium probe Fluo-2 acetoxymethyl at 4 μM final concentration in assay buffer (Hanks' balanced salt solution with 20 mM HEPES buffer and 0.2% bovine serum albumin, pH 7.4) for 45 min at 37° C. The intracellular calcium mobilization induced by the CXCL-12 (25-50 ng/mL) was then measured at 37° C. by monitoring the fluorescence as a function of time in all the wells simultaneously using a fluorometric imaging plate reader (FLIPR Tetra, Molecular Devices).

[2] = target: T2, Jurkat cells expressing CXCR4 (Homo sapiens, UniProt P61073); experiment: Chemokine (CXCL12-AF647) binding inhibition assay; settings: CXCL12-AF647 25 ng/mL, read-out: IC50 CXCL-12 binding Jurkat
T2 construct: endogenous in cells; host or cells: Jurkat
Experimental: Chemokine (CXCL12-AF647) Binding Inhibition Assay
Jurkat cells expressing CXCR4 were washed once with assay buffer (Hanks' balanced salt solution with 20 mM HEPES buffer and 0.2% bovine serum albumin, pH 7.4) and then incubated for 15 min at room temperature with the test compounds diluted in assay buffer at dose-dependent concentrations. Subsequently, CXCL12-AF647 (25 ng/mL) was added to the compound-incubated cells. The cells were incubated for 30 min at room temperature. Thereafter, the cells were washed twice in assay buffer, fixed in 1% paraformaldehyde in PBS, and analyzed on the FL4 channel of a FACSCalibur flow cytometer equipped with a 635-nm red diode laser (Becton Dickinson, San Jose, Calif., USA).
The percentages of inhibition of CXCL12-AF647 binding were calculated according to the formula: [1−((MFI−MFINC)/(MFIPC−MFINC))]×100 where MFI is the mean fluorescence intensity of the cells incubated with CXCL12-AF647 in the presence of the inhibitor, MFINC is the mean fluorescence intensity measured in the negative control (i.e., autofluorescence of unlabeled cells), and MFIPC is the mean fluorescence intensity of the positive control (i.e., cells exposed to CXCL12-AF647 alone).

in vitro = settings: human, Caco-2, pH 7.4
Experimental: Example 37: Caco-2 Permeability Assay
The goal of this assay was to evaluate the intestinal absorption potential of drug candidates using Caco-2 cell lines.
HBSS buffer with 0.3% DMSO and 5 μM LY: add 150 μL DMSO and 50 μL LY (5 mM) into 50 ml HBSS buffer (pH 7.4).
HBSS buffer with 0.1% DMSO and 5 μM LY: add 50 μL DMSO and 50 μL LY (5 mM) into 50 mL HBSS buffer (pH 7.4).
HBSS buffer with 0.3% DMSO: add 150 μL DMSO into 50 ml HBSS buffer (pH 7.4).
HBSS buffer with 0.1% DMSO: add 50 μL DMSO into 50 ml HBSS buffer (pH 7.4).
Prepare HBSS buffer with 0.4% DMSO: add 200 μL DMSO into 50 ml HBSS buffer (pH 7.4).
Prepare HBSS buffer with 0.4% DMSO and 5 μM LY: add 200 μL DMSO and 50 μL LY (5 mM) into 50 ml HBSS buffer (pH 7.4).
4. Measure TEER Take cell culture plate out of incubator, wash the cell monolayers with HBSS buffer, and then measure TEER values at Rm temperature. 5. Centrifuge Centrifuge the compound solution (from step 3) at 4000 rpm for 5 min before loading to donor chambers. 6. Dosing Add solution based on the volumes listed in the following table (make sure to take extra 100 μL of donor sample for T0 as Backup).
7. Apical LYT0 samples To determine LY concentration in the apical chember, take 100 μL sample from apical chambers into an opaque plate for LYT0. 8. Prewarm Prewarm apical and basolateral plates at 37° C. for about 5 min, then begin transport by placing the apical plate onto basolateral plate. 9. Incubation Keep the plates in incubator at 37° C. for 90 min. 10. Standard Curve preparation
11. Transport termination Separate the apical plate from the basolateral plate after 90-min incubation.
Receiver sample: 60 μL of receiver sample+60 μL ACN with IS (Osalmid or Imipramine)
Study details: Test concentration 10 μM
Test systems: Caco-2/HBSS solution
Incubation conditions: 0, 90 min at 37° C.
Sample size: Duplicates (n=2)
Bioanalytical method: LC-MS/MS
For Millicell-24 Cell Culture Plates: surface area of the membrane=0.7 cm^2, VA=0.8 mL (A-to-B) or 0.4 mL (B-to-A)
1. Papp values were calculated based on calculated concentrations.
The compound numbers correspond to the compound numbers in Table 1.

T1 sequence (P61073 whole entry): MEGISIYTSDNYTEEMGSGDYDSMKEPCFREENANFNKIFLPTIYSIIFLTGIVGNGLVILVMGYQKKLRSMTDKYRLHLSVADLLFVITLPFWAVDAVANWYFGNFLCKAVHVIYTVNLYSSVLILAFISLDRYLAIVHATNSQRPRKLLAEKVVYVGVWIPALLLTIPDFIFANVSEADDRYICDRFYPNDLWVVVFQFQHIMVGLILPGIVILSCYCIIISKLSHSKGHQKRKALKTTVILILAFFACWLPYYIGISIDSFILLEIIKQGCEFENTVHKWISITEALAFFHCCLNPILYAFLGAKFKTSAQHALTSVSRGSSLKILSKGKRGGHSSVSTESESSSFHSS
T2 sequence (P61073 whole entry): as above

Compound Cc1cccnc1[C@@H]1CCC[C@H](c2nc3ccccc3n2CC2CCCN(C)C2)N1C (stereo partly drawn) [I-13, 2-((2R,6S)-1-methyl-6-(3-methylpyridin-2-yl)piperidin-2-yl)-1-((1-methylpiperidin-3-yl)methyl)-1H-benzo[d]imidazole] has an IC50 [1] of 0.01 to 100 nM, an IC50 [2] of 0.01 to 100 nM and a Papp A→B at 90 min, 10 μM (in vitro) of 0.1 to 10 ×10⁻⁶ cm/s. It also gave a Papp B→A at 90 min, 10 μM (in vitro) of 10 to 30 ×10⁻⁶ cm/s and an efflux ratio at 90 min, 10 μM (in vitro) of 0.1 to 10.
Work on Cc1cccnc1[C@@H]1CCC[C@H](c2nc3ccccc3n2CC2CCNCC2)N1C [I-14, 2-((2R,6S)-1-methyl-6-(3-methylpyridin-2-yl)piperidin-2-yl)-1-(piperidin-4-ylmethyl)-1H-benzo[d]imidazole] yielded an IC50 [1] of 0.01 to 100 nM, an IC50 [2] of 0.01 to 100 nM and a Papp A→B at 90 min, 10 μM (in vitro) of 0.1 to 10 ×10⁻⁶ cm/s. For the same compound, the Papp B→A at 90 min, 10 μM (in vitro) was 10 to 30 ×10⁻⁶ cm/s and the efflux ratio at 90 min, 10 μM (in vitro) was over 30.
CNCCCn1c([C@H]2CCC[C@@H](c3ncccc3C)N2C)nc2ccccc21 [I-16, N-methyl-3-(2-((2R,6S)-1-methyl-6-(3-methylpyridin-2-yl)piperidin-2-yl)-1H-benzo[d]imidazol-1-yl)propan-1-amine] gave an IC50 [1] of 0.01 to 100 nM, an IC50 [2] of 0.01 to 100 nM and a Papp A→B at 90 min, 10 μM (in vitro) of 0.1 to 10 ×10⁻⁶ cm/s. It also gave a Papp B→A at 90 min, 10 μM (in vitro) of 10 to 30 ×10⁻⁶ cm/s and an efflux ratio at 90 min, 10 μM (in vitro) of over 30.
Compound Cc1cccnc1[C@@H]1CCC[C@H](c2nc3ccccc3n2CCCN2CCN(C)CC2)N1C [I-17, 2-((2R,6S)-1-methyl-6-(3-methylpyridin-2-yl)piperidin-2-yl)-1-(3-(4-methylpiperazin-1-yl)propyl)-1H-benzo[d]imidazole] has an IC50 [1] of 0.01 to 100 nM, an IC50 [2] of 0.01 to 100 nM and a Papp A→B at 90 min, 10 μM (in vitro) of 0.1 to 10 ×10⁻⁶ cm/s. It also gave a Papp B→A at 90 min, 10 μM (in vitro) of 0.1 to 10 ×10⁻⁶ cm/s and an efflux ratio at 90 min, 10 μM (in vitro) of 0.1 to 10.
Work on Cc1cccnc1[C@@H]1CCC[C@H](c2nc3ccccc3n2CCCN2CCOCC2)N1C [I-18, 4-(3-(2-((2R,6S)-1-methyl-6-(3-methylpyridin-2-yl)piperidin-2-yl)-1H-benzo[d]imidazol-1-yl)-propyl)morpholine] yielded an IC50 [1] of 0.01 to 100 nM, an IC50 [2] of 0.01 to 100 nM and a Papp A→B at 90 min, 10 μM (in vitro) of 10 to 30 ×10⁻⁶ cm/s. For the same compound, the Papp B→A at 90 min, 10 μM (in vitro) was 10 to 30 ×10⁻⁶ cm/s and the efflux ratio at 90 min, 10 μM (in vitro) was 0.1 to 10.
In the case of Cc1cccnc1[C@@H]1CCC[C@H](c2nc3ccccc3n2CCCNC2CCOCC2)N1C [I-19, N-(3-(2-((2R,6S)-1-methyl-6-(3-methylpyridin-2-yl)piperidin-2-yl)-1H-benzo[d]imidazol-1-yl)propyl)tetrahydro-2H-pyran-4-amine], the IC50 [1] is reported as 0.01 to 100 nM, the IC50 [2] is reported as 0.01 to 100 nM and the Papp A→B at 90 min, 10 μM (in vitro) is reported as 0.1 to 10 ×10⁻⁶ cm/s. It also gave a Papp B→A at 90 min, 10 μM (in vitro) of 10 to 30 ×10⁻⁶ cm/s and an efflux ratio at 90 min, 10 μM (in vitro) of 0.1 to 10.
Work on Cc1cccnc1[C@@H]1CCC[C@H](c2nc3ccccc3[nH]2)N1Cc1ccccc1-n1cccn1 [I-21, 2-((2R,6S)-1-(2-(1H-pyrazol-1-yl)benzyl)-6-(3-methylpyridin-2-yl)piperidin-2-yl)-1H-benzo[d]imidazole] yielded an IC50 [1] of 0.01 to 100 nM, an IC50 [2] of 0.01 to 100 nM and a Papp A→B at 90 min, 10 μM (in vitro) of 10 to 30 ×10⁻⁶ cm/s. The Papp B→A at 90 min, 10 μM (in vitro) was 10 to 30 ×10⁻⁶ cm/s and the efflux ratio at 90 min, 10 μM (in vitro) was 0.1 to 10.
In the case of CCN1CCC(Cn2c([C@H]3CCC[C@@H](c4ncccc4C)N3C)nc3ccccc32)CC1 [I-22, 1-((1-ethylpiperidin-4-yl)methyl)-2-((2R,6S)-1-methyl-6-(3-methylpyridin-2-yl)piperidin-2-yl)-1H-benzo[d]imidazole], the IC50 [1] is reported as 0.01 to 100 nM, the IC50 [2] is reported as 0.01 to 100 nM and the Papp A→B at 90 min, 10 μM (in vitro) is reported as 0.1 to 10 ×10⁻⁶ cm/s. It also gave a Papp B→A at 90 min, 10 μM (in vitro) of 10 to 30 ×10⁻⁶ cm/s and an efflux ratio at 90 min, 10 μM (in vitro) of 0.1 to 10.
For Cc1cccnc1[C@@H]1CCC[C@H](c2nc3ccccc3n2CC2CCN(CC(F)(F)F)CC2)N1C [I-24, 2-((2R,6S)-1-methyl-6-(3-methylpyridin-2-yl)piperidin-2-yl)-1-((1-(2,2,2-trifluoroethyl)piperidin-4-yl)methyl)-1H-benzo[d]imidazole], the IC50 [1] was at least 1000 nM, the IC50 [2] was 100 to 1000 nM and the Papp A→B at 90 min, 10 μM (in vitro) was 10 to 30 ×10⁻⁶ cm/s. It also gave a Papp B→A at 90 min, 10 μM (in vitro) of 10 to 30 ×10⁻⁶ cm/s and an efflux ratio at 90 min, 10 μM (in vitro) of 0.1 to 10.
